SMILES strings stand for the structures. Like-named read-outs stand apart in the source and are kept apart here. A value given as a limit tells only on which side of the number the result lay.

The text below walks through data of US20230286973A1, “PROTEIN SECRETION INHIBITORS” (KEZAR LIFE SCIENCES, priority 2020, published 2023).

A short description of data set [1]: Liver Microsome Stability Assay (mouse). As to conditions: mouse liver microsomes, with NADPH, 1.0 uM compound. (In general: Liver microsomes are a subcellular fraction often used to study metabolism.)
Description: (§3) Stability of a compound was assessed in the presence of liver microsomes from various sources—mouse, rat, monkey and human liver microsomes. 1.0 uM compound, 0.4% DMSO in 0.1 M Potassium Phosphate with 1.0 mg/mL liver microsomes, were incubated at 37° C. with or without 1 mM NADPH. The samples were quenched at 0, and 30 minutes.
A short description of data set [2]: Liver Microsome Stability Assay (monkey). The settings on record: monkey liver microsomes, with NADPH, 1.0 uM compound.
Description: as §3
Data set [3] in a line: Liver Microsome Stability Assay (rat). As to conditions: rat liver microsomes, with NADPH, 1.0 uM compound.
Description: as §3
Data set [4] is described as follows: Liver Microsome Stability Assay (human). As to conditions: human liver microsomes, with NADPH, 1.0 uM compound.
Description: as §3
Data set [5] has as its system IL-2-FL/Gaussia Luciferase. Nature of the data set: Dox Induced IL2-FL-Gluc Assay. The data set is classed as cell-based. The settings on record: for IC50: 24 hr Dox induction, 293FRT/TO cells, read-out: 24 hr Dox Inducible IL2FLGluc 293FRT/TO: Mean IC50; for 24 hr Dox Inducible IL2FLGluc 293FRT/TO: IL2/PD1: ratio of IL2FLGluc IC50 to PD1ssGluc IC50. The text has this: (§1) Flp-In 293 T-REx™ cells were transfected with pcDNA™5/FRT/TO plasmid inserted with cDNA encoding Gaussia Luciferase fused to the 3′ end of cDNA encoding full length IL-2 (amino acids 1-153). Transfected cells were selected for resistance to the selectable markers Hygromycin and Blasticidin to create a stable cell line that contained the IL-2-FL/Gaussia Luciferase cDNA insert whose expression was regulated under the T-REx™ system. The day before assay, cells were trypsinized and plated in 384-well tissue culture plates. The next day, compound dilutions in DMSO/media containing doxycycline were added to the wells and incubated at 37° C., 5% CO2.
(§2) For chemical structures that include one or more stereoisomers, but are illustrated without indicating stereochemistry, the assay data refers to a mixture of stereoisomers.

Data set [6] has as its system PD1-ss+10aa/Gaussia Luciferase. Nature of the data set: Dox-Induced PD1-ss-Gluc Assay. The data set is classed as cell-based. As to conditions: 24 hr Dox induction, 293FRT/TO cells, read-out: 24 hr Dox Inducible PD1ssGluc 293FRT/TO: Mean IC50.
Description: as §1, with “PD1 signal sequence plus 10 amino” for “full length IL-2 (amino”, “(N-[…]-C) (SEQ ID NO: 1).” for “1-153).”, “PD1-ss+10aa/Gaussia” for “IL-2-FL/Gaussia”
as §2

The mark [7] stands for this setting: '<=>' given where both are I.A.

In the case of `CN1C(=O)OCC1/C=C/c1csc(NC(=O)c2cccn2Cc2ccncc2)n1` (stereo not drawn) [Compound B15, (E)-N-(4-(2-(3-methyl-2-oxooxazolidin-4-yl)vinyl)thiazol-2-yl)-1-(pyridin-4-ylmethyl)-1H-pyrrole-2-carboxamide], the “Liver Microsome Stability (Multiple Species): Mouse - % Remaining after 30 min w/NADPH” value in data set [1] is 0.34%. Moreover, in data set [2], the “Liver Microsome Stability (Multiple Species): Monkey - % Remaining after 30 min w/NADPH” value stood at 0.4%. Moreover, the “Liver Microsome Stability (Multiple Species): Rat - % Remaining after 30 min w/NADPH” value in data set [3] is listed as 0.28%. Moreover, the “Liver Microsome Stability (Multiple Species): Human - % Remaining after 30 min w/NADPH” value in data set [4] is 0.11%.
The corresponding values for `CCc1ccc(N2CCC[C@@H]2c2csc(NC(=O)c3cccn3Cc3ccncc3)n2)cc1` [Compound A22, (R)-N-(4-(1-(4-ethylphenyl)pyrrolidin-2-yl)thiazol-2-yl)-1-(pyridin-4-ylmethyl)-1H-pyrrole-2-carboxamide] are 15.8%, 17.6%, 11.7% and 29.1%.
For `CC(CC#N)Cn1cccc1C(=O)Nc1nc([C@H]2CCCN2c2ccccc2)cs1` (stereo partly drawn) [Compound C20, 1-(3-cyano-2-methylpropyl)-N-(4-((R)-1-phenylpyrrolidin-2-yl)thiazol-2-yl)-1H-pyrrole-2-carboxamide], in that order: 4.75%, 15%, 10.6% and 15.3%.
For `N#CCC1(Cn2cccc2C(=O)Nc2nc([C@H]3CCCN3c3ccccc3)cs2)COC1` [Compound C19, (R)-1-((3-(cyanomethyl)oxetan-3-yl)methyl)-N-(4-(1-phenylpyrrolidin-2-yl)thiazol-2-yl)-1H-pyrrole-2-carboxamide], in that order: 3.48%, 8.4%, 3.9% and 3.59%.
With `Cn1ccnc1/C=C/c1csc(NC(=O)c2cccn2Cc2ccncc2)n1` [Compound B20, (E)-N-(4-(2-(1-methyl-1H-imidazol-2-yl)vinyl)thiazol-2-yl)-1-(pyridin-4-ylmethyl)-1H-pyrrole-2-carboxamide], in data set [5], the IC50 was greater than 25 µM and the “24 hr Dox Inducible IL2FLGluc 293FRT/TO: IL2/PD1” value was greater than 4.6. Moreover, the IC50 in data set [6] came out at 5.42 µM.
`O=C(NC/C=C/c1csc(NC(=O)c2cccn2Cc2ccncc2)n1)c1ccccc1` [Compound E54, (E)-N-(4-(3-benzamidoprop-1-en-1-yl)thiazol-2-yl)-1-(pyridin-4-ylmethyl)-1H-pyrrole-2-carboxamide]: in data set [1], the “Liver Microsome Stability (Multiple Species): Mouse - % Remaining after 30 min w/NADPH” value is recorded as 1.05%. Moreover, the “Liver Microsome Stability (Multiple Species): Monkey - % Remaining after 30 min w/NADPH” value in data set [2] worked out at 0.17%. Further, the “Liver Microsome Stability (Multiple Species): Rat - % Remaining after 30 min w/NADPH” value in data set [3] is listed as 6.61%. Besides, in data set [4], the “Liver Microsome Stability (Multiple Species): Human - % Remaining after 30 min w/NADPH” value is 0.37%.
The corresponding values for `N#CC[C@@H]1CC[C@H]1Cn1cccc1C(=O)Nc1nc([C@H]2CCCN2c2ccccc2)cs1` [Compound C18, 1-(((1R,2S)-2-(cyanomethyl)cyclobutyl)methyl)-N-(4-((R)-1-phenylpyrrolidin-2-yl)thiazol-2-yl)-1H-pyrrole-2-carboxamide] are 0.15%, 0.08%, 0.2% and 0.07%.
For `O=C(Nc1nc([C@H]2CCCN2c2cnccn2)cs1)c1cccn1Cc1ccncc1` [Compound A30, (R)-N-(4-(1-(pyrazin-2-yl)pyrrolidin-2-yl)thiazol-2-yl)-1-(pyridin-4-ylmethyl)-1H-pyrrole-2-carboxamide], in that order: 0.86%, 0.03%, 0.21% and 0.27%.
For `O=C(Nc1nc([C@H]2CCCN2c2ccc(C3CC3)cc2)cs1)c1cccn1Cc1ccncc1` [Compound A24, (R)-N-(4-(1-(4-cyclopropylphenyl)pyrrolidin-2-yl)thiazol-2-yl)-1-(pyridin-4-ylmethyl)-1H-pyrrole-2-carboxamide], in data set [1], the “Liver Microsome Stability (Multiple Species): Mouse - % Remaining after 30 min w/NADPH” value was found to be 19.9%. Moreover, the “Liver Microsome Stability (Multiple Species): Monkey - % Remaining after 30 min w/NADPH” value in data set [2] came to 22.5%. Besides, the “Liver Microsome Stability (Multiple Species): Rat - % Remaining after 30 min w/NADPH” value in data set [3] is recorded as 35.9%. In addition, the “Liver Microsome Stability (Multiple Species): Human - % Remaining after 30 min w/NADPH” value in data set [4] was determined as 22.4%.
For `O=C(Nc1nc([C@H]2CCCN2C2COC2)cs1)c1cccn1Cc1ccncc1` [Compound E49, (R)-N-(4-(1-(oxetan-3-yl)pyrrolidin-2-yl)thiazol-2-yl)-1-(pyridin-4-ylmethyl)-1H-pyrrole-2-carboxamide], in that order: 1.59%, 0.09%, 1.92% and 0.09%.
In the case of `CC(C)c1cccc(/C=C/c2csc(NC(=O)c3cccn3Cc3ccncc3)n2)n1` [Compound E55, (E)-N-(4-(2-(6-isopropylpyridin-2-yl)vinyl)thiazol-2-yl)-1-(pyridin-4-ylmethyl)-1H-pyrrole-2-carboxamide], the IC50 in data set [5] (mean) amounted to 2.98 µM; in data set [6] (mean), 0.315 µM. Moreover, the “24 hr Dox Inducible IL2FLGluc 293FRT/TO: IL2/PD1” value in data set [5] (setting [7]) was determined as 9.5.
Regarding `CC(C)c1ccc(N2CCC[C@@H]2c2csc(NC(=O)c3cccn3Cc3ccncc3)n2)cc1` [Compound A23, (R)-N-(4-(1-(4-isopropylphenyl)pyrrolidin-2-yl)thiazol-2-yl)-1-(pyridin-4-ylmethyl)-1H-pyrrole-2-carboxamide], the “Liver Microsome Stability (Multiple Species): Mouse - % Remaining after 30 min w/NADPH” value in data set [1] amounted to 25.3%. In addition, in data set [2], the “Liver Microsome Stability (Multiple Species): Monkey - % Remaining after 30 min w/NADPH” value was 29.9%. In addition, the “Liver Microsome Stability (Multiple Species): Rat - % Remaining after 30 min w/NADPH” value in data set [3] is listed as 40.2%. Besides, the “Liver Microsome Stability (Multiple Species): Human - % Remaining after 30 min w/NADPH” value in data set [4] is given as 24.7%.
The corresponding values for `O=C(Nc1nc([C@H]2CCCN2c2ncccn2)cs1)c1cccn1Cc1ccncc1` [Compound A32, (R)-1-(pyridin-4-ylmethyl)-N-(4-(1-(pyrimidin-2-yl)pyrrolidin-2-yl)thiazol-2-yl)-1H-pyrrole-2-carboxamide] are 0.17%, 0.05%, 0.55% and 0.24%.
The corresponding values for `CC1=NC(/C=C/c2csc(NC(=O)c3cccn3Cc3ccncc3)n2)CO1` (stereo not drawn) [Compound B14] are 2.9%, 6.02%, 3.31% and 3.9%.
With `O=C(Nc1nc([C@H]2CCCN2c2ccccc2)cs1)c1cccn1CCCCc1cnn[nH]1` [Compound C26, (R)-1-(4-(1H-1,2,3-triazol-5-yl)butyl)-N-(4-(1-phenylpyrrolidin-2-yl)thiazol-2-yl)-1H-pyrrole-2-carboxamide], the IC50 was greater than 25 µM in data set [5] (mean) and 7.97 µM in data set [6] (mean). Besides, the “24 hr Dox Inducible IL2FLGluc 293FRT/TO: IL2/PD1” value in data set [5] (setting [7]) was greater than 3.1.
Consider `O=C(Nc1nc([C@H]2CCCN2c2ccccc2)cs1)c1cccn1Cc1ccncc1F` [Compound E27, (R)-1-((3-fluoropyridin-4-yl)methyl)-N-(4-(1-phenylpyrrolidin-2-yl)thiazol-2-yl)-1H-pyrrole-2-carboxamide], for which the IC50 in data set [5] (mean) was 0.0568 µM; in data set [6] (mean) it was 0.0175 µM. For the same molecule, in data set [5] (setting [7]), the “24 hr Dox Inducible IL2FLGluc 293FRT/TO: IL2/PD1” value was found to be 3.2.
